From ChEMBL document CHEMBL3860030, “Design, synthesis and biological evaluation of novel macrocyclic bisbibenzyl analogues as tubulin polymerization inhibitors” (Eur J Med Chem, 2016)
Where a name gives a salt, the structure may show the parent alone. Calls of active or inactive are those of the source. The calls are words filed in the database; no cut-off is given here.

Key:
[1] = organism: Bos taurus; assay: Induction of bovine brain tubulin polymerization at 5 uM measured every minute for 1 hr by spectrophotometric method
[2] = test system: HCC1428; assay: Cytotoxicity against human HCC1428 cells assessed as decrease in cell viability at 1 uM after 60 hrs by xCELLigence system; type: functional, cell-based
[3] = organism: Bos taurus; assay: Inhibition of bovine brain tubulin polymerization at 5 uM measured every minute for 1 hr by spectrophotometric method
[4] = Cytotoxicity against docetaxel-resistant human PC3 cells assessed as decrease in cell viability after 48 hrs by MTT assay; type: functional, cell-based; conditions: PC-3, 48 h
[5] = Cytotoxicity against human HT-29 cells assessed as decrease in cell viability after 48 hrs by MTT assay; type: functional, cell-based; conditions: HT-29, 48 h
[6] = Cytotoxicity against human HCC1428 cells assessed as decrease in cell viability after 48 hrs by MTT assay; type: functional, cell-based; conditions: HCC1428, 48 h
[7] = cells; conditions: Homo sapiens, HeLa, 48 h
Description: Cytotoxicity against human HeLa cells assessed as decrease in cell viability after 48 hrs by MTT assay

For `CC(=O)O[C@H]1C(=O)[C@@]2(C)[C@H]([C@H](OC(=O)c3ccccc3)[C@]3(O)C[C@H](OC(=O)[C@H](O)[C@@H](NC(=O)c4ccccc4)c4ccccc4)C(C)=C1C3(C)C)[C@]1(OC(C)=O)CO[C@@H]1C[C@@H]2O`, the Activity [1] was “Active”.
With `CC[C@]1(O)C[C@H]2CN(CCc3c([nH]c4ccccc34)[C@@](C(=O)OC)(c3cc4c(cc3OC)N(C=O)[C@H]3[C@@](O)(C(=O)OC)[C@H](OC(C)=O)[C@]5(CC)C=CCN6CC[C@]43[C@@H]65)C2)C1` the Activity [2] was “Active” and the inhibition [3] was “Active”.
Compound `COc1cccc2c1C(=O)c1c(O)c3c(c(O)c1C2=O)C[C@@](O)(C(=O)CO)C[C@@H]3O[C@H]1C[C@H](N)[C@H](O)[C@H](C)O1` [DOXORUBICIN HYDROCHLORIDE] has an IC50 [4] of 15200 nM, an IC50 [5] of 1460 nM and an IC50 [6] of 1560 nM. For the same compound, the IC50 [7] was 1060 nM.
